The target in assay [1] is T1, hTAS1R2 + hTAS1R3 L782A^6.55 (Homo sapiens, UniProt Q7RTX0+Q8TE23, L782A).
T1 construct: expressed in transfected cells; host or cells: HEK293T cells stably expressing G16Gust44
T1 sequence (Q8TE23 20-839): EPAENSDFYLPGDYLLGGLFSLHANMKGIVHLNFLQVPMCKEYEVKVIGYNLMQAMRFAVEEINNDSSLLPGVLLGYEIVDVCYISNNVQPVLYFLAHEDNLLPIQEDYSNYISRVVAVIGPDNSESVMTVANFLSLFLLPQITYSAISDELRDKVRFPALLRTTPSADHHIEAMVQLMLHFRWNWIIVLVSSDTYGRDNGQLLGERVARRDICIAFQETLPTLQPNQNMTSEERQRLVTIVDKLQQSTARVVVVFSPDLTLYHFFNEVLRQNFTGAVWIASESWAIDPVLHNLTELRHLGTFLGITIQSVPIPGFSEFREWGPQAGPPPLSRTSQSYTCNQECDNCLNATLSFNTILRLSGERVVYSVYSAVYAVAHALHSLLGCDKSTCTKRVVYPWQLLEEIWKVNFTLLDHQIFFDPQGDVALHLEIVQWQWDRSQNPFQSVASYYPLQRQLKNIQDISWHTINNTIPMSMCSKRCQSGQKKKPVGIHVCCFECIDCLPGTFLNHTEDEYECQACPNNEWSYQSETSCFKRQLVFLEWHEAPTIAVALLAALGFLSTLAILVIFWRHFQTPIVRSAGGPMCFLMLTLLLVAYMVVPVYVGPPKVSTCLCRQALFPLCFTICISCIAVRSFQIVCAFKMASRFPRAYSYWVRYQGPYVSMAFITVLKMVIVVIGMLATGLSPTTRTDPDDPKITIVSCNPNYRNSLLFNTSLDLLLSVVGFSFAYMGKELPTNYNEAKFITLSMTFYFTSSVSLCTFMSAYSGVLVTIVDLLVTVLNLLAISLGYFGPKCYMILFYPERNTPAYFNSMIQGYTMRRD
T1 sequence (Q7RTX0 21-852 L782A): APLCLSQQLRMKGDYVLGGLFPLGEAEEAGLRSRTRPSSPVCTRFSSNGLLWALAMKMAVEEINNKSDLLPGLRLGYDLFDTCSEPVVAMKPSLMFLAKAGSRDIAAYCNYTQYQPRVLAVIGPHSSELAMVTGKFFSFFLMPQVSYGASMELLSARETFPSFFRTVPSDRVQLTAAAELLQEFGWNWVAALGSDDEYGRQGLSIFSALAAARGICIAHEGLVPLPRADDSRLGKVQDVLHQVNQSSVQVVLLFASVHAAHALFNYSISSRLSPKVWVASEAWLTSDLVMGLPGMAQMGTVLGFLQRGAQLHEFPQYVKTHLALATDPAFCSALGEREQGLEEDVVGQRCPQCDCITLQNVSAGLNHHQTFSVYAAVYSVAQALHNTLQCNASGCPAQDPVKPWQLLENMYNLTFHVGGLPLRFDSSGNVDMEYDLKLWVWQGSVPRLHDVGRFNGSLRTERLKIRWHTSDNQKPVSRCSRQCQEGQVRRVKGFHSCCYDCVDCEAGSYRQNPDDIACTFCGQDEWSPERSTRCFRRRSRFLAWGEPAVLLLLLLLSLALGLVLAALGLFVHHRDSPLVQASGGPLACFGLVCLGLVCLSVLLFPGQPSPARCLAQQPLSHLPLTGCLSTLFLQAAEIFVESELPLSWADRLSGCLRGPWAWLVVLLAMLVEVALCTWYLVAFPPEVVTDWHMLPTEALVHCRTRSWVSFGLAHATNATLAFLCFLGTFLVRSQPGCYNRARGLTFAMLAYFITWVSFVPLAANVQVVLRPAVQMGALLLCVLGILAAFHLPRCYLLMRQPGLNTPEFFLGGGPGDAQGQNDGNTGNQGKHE
The experiment in a line: Calcium response (FLIPR), hTAS1R3 mutant coexpressed with hTAS1R2. The settings on record: variant L782A^6.55; for EC50: (>) EC50 not calculable because saturation is not reached; for Emax: read-out: maximal signal (% of wt). In kind it is cell-based. In outline:
(§1)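 HEK293T cells stably expressing chimeric G16Gust44 were transiently transfected with C-terminally HSV-tagged hTAS1R2 and mutant hTAS1R3, then loaded 24 h later with Fluo4-AM for 1 h. Calcium mobilization after sweet-tastant application was read by FLIPR, mock-corrected and expressed as ΔF/F.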

Assay [2] addresses T2, hTAS1R2 + hTAS1R3 Y699L^4.60 (Homo sapiens, UniProt Q7RTX0+Q8TE23, Y699L).
T2 construct: expressed in transfected cells; host or cells: HEK293T cells stably expressing G16Gust44
T2 sequence (Q7RTX0 21-852 Y699L): T1 sequence (Q7RTX0 21-852 L782A) with Y679L, A762L
T2 sequence (Q8TE23 20-839): T1 sequence (Q8TE23 20-839)
Described as above. In kind it is cell-based. The settings on record: variant Y699L^4.60; for Emax: read-out: maximal signal (% of wt). In outline:
as §1

Changes are numbered by the printed parent chain. Where a SMILES comes first, the peptide text is derived from it. Some results are limits rather than exact numbers.

Consider `COc1ccc(CCC(=O)c2c(O)cc(O[C@@H]3O[C@H](CO)[C@@H](O)[C@H](O)[C@H]3O[C@@H]3O[C@@H](C)[C@H](O)[C@@H](O)[C@H]3O)cc2O)cc1O` [NHDC, neohesperidin dihydrochalcone], for which, in assay [1], the 50% effective concentration (EC50) – broadly, the concentration that produces a half-maximal response – is greater than 3000 µM and the Emax turned out to be 50 ± 11%. In addition, in assay [2], the EC50 came out at 700 ± 100 µM and the Emax turned out to be 83 ± 40%.
As for `COC(=O)[C@H](Cc1ccccc1)NC(=O)[C@@H](N)CC(=O)O` [aspartame] (HELM PEPTIDE1{D.F.[CO[*:1]]}$$$$V2.0), the EC50 in assay [1] was 1700 ± 300 µM; in assay [2], 1600 ± 400 µM. Further, the values for the Emax in assay [1] and in assay [2] were 95 ± 90% and 78 ± 9%, respectively.

The record behind these values is PMC2099433, “The binding site for neohesperidin dihydrochalcone at the human sweet taste receptor” (BMC Structural Biology, 2007).
